According to patent US7626077B2, “Glyphosate-resistant plants” (Mertec LLC, priority 2002, dated 2009):

Tests used:
[1] = system: co-cultivated corn embryos; assay: Selection of Agrobacterium co-cultivated corn embryos on glyphosate-containing medium; format: cell-based, Zea mays; details: 540 mg/l glyphosate, DN62540RR medium, Agrobacterium-mediated DNA delivery
Method: Transformation can also be accomplished using Agrobacterium-mediated DNA delivery. In this case, the transformation and regeneration are performed according to the methods as described in U.S. patent application Ser. No. 09/203,679, which is herein incorporated by reference. Briefly, after culturing on DN62A0S20GLC (Table 2) for five days, co-cultivated embryos are transferred to DN62ALC180RR medium which contains 180 mg/l glyphosate (Table 3). After two 14-day passages on this medium, actively growing tissue is transferred to DN62540RR medium containing 540 mg/l glyphosate (Table 3). […] Regeneration is carried out as described in U.S. Ser. No. 09/203,679.

[2] = system: cultured immature corn embryos transformed with SEQ ID NO: 6; assay: Selection of beamed corn embryos on glyphosate-containing medium; format: cell-based, Zea mays; details: 540 mg/l glyphosate, DN62540RR medium, aerosol beam transformation with SEQ ID NO: 6
Method: The Cla I and Eco RV fragment (SEQ ID NO: 6) of HCEM was introduced into cultured immature corn embryos using an aerosol beam injector according to U.S. patent application Ser. No. 09/450,226. The Cia I-Eco RV fragment comprised the glyphosate-resistant EPSPS coding sequence.
Selection was carried out as follows: the beamed embryos were allowed to remain on DN62A0S20G medium for 5 days.
The beamed embryos were then transferred to DN62A100RR—a medium containing 100 mg/l glyphosate. After two 14-day passages on DN62A100RR, actively growing tissue is transferred to DN62A300RR medium which contains 300 mg/l (Table 3). After two 14-day passages on this medium, tissue was finally transferred to DN62540RR medium which contains 540 mg/i glyphosate (Table 3). […] Regeneration is carried out as described in U.S. patent application Ser. No. 09/450,226.

[3] = system: regenerated soybean plants transformed with mutant epm1 and/or mutant epm2; assay: Glyphosate spray of regenerated transgenic soybean plants and progenies; format: in vivo; details: sprayed at commercial rates, greenhouse
Excerpt: The Bam HI/Sac II fragment (SEQ ID NO: 2) of epm1 vector and the Eco RI fragment (SEQ ID NO: 4) of epm2 vector were used to transform soybean embryogenic callus using an aerosol beam injector as described in U.S. patent application Ser. No. 09/450,226, which is incorporated herein by reference. These fragments comprised mutant epm1 and mutant epm2 which encode (putative) glyphosate-resistant EPSPSs. These fragments were used either alone or, preferably, together.
The transformed tissue is selected for glyphosate resistance using the method described below. First, the beamed embryogenic callus is maintained for one month on B1-30 3Co5My0.01PA medium.
The tissue is then transferred to the same medium but now containing 300 mg/l glyphosate. After a number of passages (up to 5 passages, each passage may last for about a month) on this latter medium, resistant clonal material may be identified. After an optional further few passages on B1-30 3Co5My0.01PA medium but containing 500 mg/l glyphosate, the growing tissue is transferred to a regeneration media as described in U.S. Pat. Ser. No. 09/450,226. Regenerated plants are transferred to pots in a greenhouse. […] Progenies are expected to 3:1 for glyphosate resistance as would be expected for Mendelian inheritance of a transgene.

O=C(O)CNCP(=O)(O)O [glyphosate, N-phosphonomethylglycine]
growth of stably transformed tissue on glyphosate medium [1]: continued growth
growth of stably transformed tissue on glyphosate medium [2]: continued growth
resistance of regenerated plants and progenies to glyphosate spray [3]: complete resistance
